Reference: US7112607B2, “Allosteric adenosine receptor modulators” (King Pharmaceuticals Research & Development, Inc., priority 1997, dated 2006)

Target: T1, human recombinant A1 adenosine receptors (Homo sapiens, UniProt P30542)
T1 construct: expressed in transfected cells; host or cells: Chinese hamster ovary (CHO) cells, CHO:huA1, G-418 selected
T1 sequence (P30542 1-326): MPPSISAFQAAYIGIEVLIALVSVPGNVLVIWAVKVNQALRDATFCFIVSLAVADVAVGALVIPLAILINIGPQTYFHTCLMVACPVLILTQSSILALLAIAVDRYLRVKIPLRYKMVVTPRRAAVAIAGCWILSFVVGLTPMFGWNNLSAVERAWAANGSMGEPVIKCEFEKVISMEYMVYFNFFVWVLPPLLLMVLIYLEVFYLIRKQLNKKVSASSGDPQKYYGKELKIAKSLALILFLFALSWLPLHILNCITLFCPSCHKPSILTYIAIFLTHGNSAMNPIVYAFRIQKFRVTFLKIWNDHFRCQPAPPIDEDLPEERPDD
Assay: Allosteric enhancement: reduction of cAMP content of CHO:huA1 cells (radioimmunoassay)
Assay type: cell-based
Conditions: forskolin 1 μM, rolipram 20 μM, CPA 0.01 nM, adenosine deaminase, 6 min at 36° C.; for inhibition at 0.01 µM / inhibition at 0.1 µM / inhibition at 1 µM / inhibition at 10 µM: 0.1 h, read-out: Change in cAMP Content from Control (mean + SEM)
Method: Chinese hamster ovary cells expressing human recombinant A1 adenosine receptors (CHO:huA1 cells) at a density of approximately 8000 fmol/mg protein were prepared as previously described (Kollias-Baker et al., (1997), J. Pharmacol. Exp. Ther. 281: 761–768) and aliquots of the cells at low passage numbers were frozen and stored in liquid nitrogen. When compounds were tested, an aliquot of CHO:huA1 cells were rapidly thawed after removal from liquid nitrogen, then grown in Ham's F12 culture medium with 10% fetal bovine serum and 0.5 mg/mL of antibiotic G-418 (Shryock, Ozeck, and Belardinelli (1998), Mol. Pharmacol 53: 886–893). Cells were passaged thrice weekly. Aliquots of cells were placed into 12-well plates with culture medium, serum, and antibiotic for 48 hours, by which time the cells had grown to a confluent monolayer.
Allosteric enhancement was measured as the action of a test compound at different concentrations (0.01, 0.1, 1 and 10 μM) to reduce the cAMP content of CHO:huA1 cells. To initiate an experiment, growth medium was removed from the 12-well plates and cells were washed once with warm Hanks' buffered saline. The wash solution was then removed and replaced with fresh Hanks' solution containing forskolin (1 μM), rolipram (20 μM), N^6-cyclopentyladenosine (CPA, 0.01 nM), adenosine deaminase (2 U/mL), and the test compound. Forskolin was used to stimulate the activity of adenylyl cyclase, rolipram to inhibit cAMP phosphodiesterase, adenosine deaminase to degrade endogenous adenosine, and CPA to cause a small increase of the number of activated adenosine receptors. After 6 min of incubation at 36° C. in the presence of test compound, the incubation solution was removed and hydrochloric acid (final concentration 50 mM) was added to terminate drug action.
The content of cAMP in acidified extracts of cells was determined by radioimmunoassay as previously described (Kollias-Baker et al., (1997), J. Pharmacol. Exp. Ther. 281: 761–768). Because the magnitude of the effects of allosteric enhancers on CHO:huA1 cells changed subtly with passage number and differed slightly among different aliquots of cells, the actions of the test compounds and the action of a reference compound (PD 81,723) were assessed in each experiment. The effect of each test compound on cAMP content is presented in Table 1 as a percentage of the value of cAMP content in the absence of drug (control, 100%). Each value is a mean±standard error of 6 determinations in each of the number of experiments indicated in the “n” column of the table.

SMILES | inhibition at 0.01 µM (0.01 μM test compound) | inhibition at 0.1 µM (0.1 μM test compound) | inhibition at 1 µM (1 μM test compound) | inhibition at 10 µM (10 μM test compound) | Change in cAMP Content from Control (mean + SEM) (0.01 μM test compound) | Change in cAMP Content from Control (mean + SEM) (0.1 μM test compound) | Change in cAMP Content from Control (mean + SEM) (1 μM test compound) | Change in cAMP Content from Control (mean + SEM) (10 μM test compound)
Nc1sc2c(c1C(=O)c1ccc(I)c3ccccc13)CCC2 [Example 24, (2-Amino-1,6-dihydro-4H-cyclopenta[b]thiophen-3-yl)-(4-iodonaphthalen-1-yl)-methanone] | 6 ± 3% | 8 ± 3% | 22 ± 4% | 75 ± 1% |  |  |  | 
Nc1sc2c(c1C(=O)c1ccc(Cl)c3ccccc13)CCC2 [Example 25, (2-Amino-5,6-dihydro-4H-cyclopenta[b]thiophen-3-yl)-(4-chloronaph-thalen-1-yl)-methanone] |  |  |  |  | −10 ± 2% | −15 ± 4% | −27 ± 2% | −55 ± 2%
Nc1sc2c(c1C(=O)c1ccc(I)c3ccccc13)CCCC2 [Example 26, (2-Amino-4,5,6,7-tetrahydrobenzo[b]thiophen-3-yl)-(4-iodonaphthalen-1-yl)-methanone] | 3 ± 4% | 4 ± 4% | 24 ± 5% | 67 ± 2% |  |  |  | 
COc1ccc(C(=O)c2c(N)sc3c2CCCC3)c2ccccc12 [Example 27, (2-Amino-4,5,6,7-tetrahydrobenzo[b]thiophen-3-yl)-(4-methoxynaph-thalen-1-yl)-methanone] |  |  |  |  | 5 ± 4% | −5 ± 4% | −3 ± 3% | −17 ± 1%
Nc1sc2c(c1C(=O)c1ccc(Cl)c3ccccc13)CCCC2 [Example 28, (2-Amino-4,5,6,7-tetrahydrobenzo[b]thiophen-3-yl)-(4-chloronaphthalen-1-yl)-methanone] | 11 ± 3% | -3 ± 3% | 25 ± 4% | 44 ± 2% |  |  |  | 
Nc1sc2c(c1C(=O)c1ccc(Br)c3ccccc13)CCCC2 [Example 29, (2-Amino-4,5,6,7-tetrahydrobenzo[b]thiophen-3-yl)-(4-bromonaphthalen-1-yl)-methanone] | 6 ± 3% | 10 ± 2% | 29 ± 2% | 72 ± 1% |  |  |  | 
Nc1sc2c(c1C(=O)c1ccc3ccccc3c1)CCCC2 [Example 30, (2-Amino-4,5,6,7-tetrahydrobenzo[b]thiophen-3-yl)-naphthalen-2-yl-methanone] | 13 ± 4% | 24 ± 3% | 28 ± 2% | 42 ± 3% |  |  |  | 
Nc1sc2c(c1C(=O)c1ccc3ccccc3c1)CCC2 [Example 31, (2-Amino-5,6-dihydro-4H-cyclopenta[b]thiophen-3-yl)-naphthalen-2-yl-methanone] | 19 ± 3% | 14 ± 4% | 15 ± 3% | 51 ± 3% |  |  |  | 
Nc1sc2c(c1C(=O)c1ccc3ccccc3c1)CCN(Cc1ccccc1)C2 [Example 32, (2-Amino-6-benzyl-4,5,6,7-tetrahydrothieno[2,3-c]pyridin-3-yl)-naphthalen-2-yl-methanone] | 11 ± 4% | 12 ± 3% | 18 ± 3% | 60 ± 4% |  |  |  | 
Cc1sc(N)c(C(=O)c2ccc3ccccc3c2)c1C [Example 33, (2-Amino-4,5-dimethylthiophen-3-yl)-naphthalen-2-yl-methanone] | 1 ± 3% | 4 ± 3% | 8 ± 3% | 28 ± 3% |  |  |  | 
Cc1sc(N)c(C(=O)c2cccc(C(F)(F)F)c2)c1C [PD 81,723, reference compound] |  |  |  |  | −1 ± 2% | −7 ± 2% | −13 ± 1% | −50 ± 1%
